Results: ChEMBL document CHEMBL1125963, “Triply-convergent synthesis of a homochiral 3,3-dimethyl, 15-cyclohexyl prostacyclin analog” (Bioorg Med Chem Lett, 1991)

Columns and labels:
Homo sapiens [1] = organism: Homo sapiens; test: Concentration required to inhibit collagen-induced platelet aggregation by 50 % (>10 uM); IA means inactive; assay type: functional
Homo sapiens [2] = organism: Homo sapiens; test: Concentration required to inhibit collagen-induced platelet aggregation by 50 %; assay type: functional

SMILES	IC50 (Homo sapiens [1])	IC50 (Homo sapiens [2])
CC(C)(C/C=C1\C[C@H]2C[C@@H](O)[C@H](C#C[C@@H](O)C3CCCCC3)[C@H]2C1)CCO	Not Active	–
CCCCC[C@H](O)/C=C/[C@@H]1[C@H]2C/C(=C/CCCC(=O)O)C[C@H]2C[C@H]1O	Not Active	–
O=C(O)COc1cccc2c1C[C@H]1C[C@@H](O)[C@H](CC[C@@H](O)C3CCCCC3)[C@H]1C2	Not Active	–

Now from value to molecule:

IC50 (Homo sapiens [1])	IC50 (Homo sapiens [2])	SMILES
Not Active	–	CCC#CC[C@H](C)[C@H](O)C#C[C@@H]1[C@H]2C/C(=C/COCC(=O)O)C[C@H]2C[C@H]1O [CICAPROST]
–	480 nM	CC(C)(C/C=C1\C[C@H]2C[C@@H](O)[C@H](C#C[C@H](O)C3CCCCC3)[C@H]2C1)CC(=O)O
